“Also recorded” adds a separate entry of the source.

The target of one experiment is anthrax lethal factor protease (Bacillus anthracis, UniProt P15917). The experiment is described as follows: biochemical. Format: biochemical.
anthrax lethal factor protease, sequence (P15917 34-809 limits assumed): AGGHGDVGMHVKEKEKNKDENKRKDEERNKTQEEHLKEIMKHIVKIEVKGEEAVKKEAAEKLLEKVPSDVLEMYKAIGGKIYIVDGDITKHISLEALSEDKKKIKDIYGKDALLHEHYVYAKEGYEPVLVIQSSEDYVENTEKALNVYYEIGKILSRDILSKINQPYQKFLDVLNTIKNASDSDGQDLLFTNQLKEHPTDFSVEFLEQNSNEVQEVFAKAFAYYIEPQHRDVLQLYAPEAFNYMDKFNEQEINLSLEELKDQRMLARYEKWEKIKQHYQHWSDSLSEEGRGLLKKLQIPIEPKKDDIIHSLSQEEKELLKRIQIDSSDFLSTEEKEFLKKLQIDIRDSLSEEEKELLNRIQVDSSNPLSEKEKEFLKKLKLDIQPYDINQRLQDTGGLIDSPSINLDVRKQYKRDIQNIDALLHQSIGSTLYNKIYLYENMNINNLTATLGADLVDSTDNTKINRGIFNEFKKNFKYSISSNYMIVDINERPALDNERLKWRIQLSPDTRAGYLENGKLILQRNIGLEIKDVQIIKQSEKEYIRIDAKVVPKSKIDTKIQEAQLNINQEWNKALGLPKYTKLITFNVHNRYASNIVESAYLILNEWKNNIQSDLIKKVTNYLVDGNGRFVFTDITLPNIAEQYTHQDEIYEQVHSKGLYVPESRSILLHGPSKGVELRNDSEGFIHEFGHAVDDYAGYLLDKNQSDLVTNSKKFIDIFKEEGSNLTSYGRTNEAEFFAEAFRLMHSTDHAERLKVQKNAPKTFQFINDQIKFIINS
As for `c1cc(-c2[nH]c3cc(C4=NCCN4)ccc3c2-c2cc3ccc(C4=NCCN4)cc3[nH]2)ccc1C1=NCCN1` [NSC 341911], the “Percent Inhibition” value is given as 64. With `Cc1cc(N)c2cc(NC(=O)Nc3ccc4nc(C)cc(N)c4c3)ccc2n1` [NSC 12155], the Inhibition type entry is “competitive inhibition”; the Ki (usually a dissociation constant, usually derived from enzyme kinetics or from competition with a known ligand) stood at 0.5 µM; the “Km(app) with inhibitor concentration” value was “increased”; the “effect on the Vmax” value is “no effect”. Further, testing at 20 µM gave an inhibition of 95% and the “inhibition of LF activity (in words)” value was “strong inhibition”.

Regarding `c1cc2cc(-c3ccc(-c4cc5ccc(C6=NCCN6)cc5[nH]4)cc3)[nH]c2cc1C1=NCCN1` [NSC 317881], the “Percent Inhibition” value is 97. As for `N=C(N)c1ccc(/C=C/c2cc3cc(C(=N)N)ccc3[nH]2)cc1` [NSC 317884], the “Percent Inhibition” value is 95. In the case of `N=C(N)c1ccc(Oc2ccc(-c3cc4ccc(C(=N)N)cc4[nH]3)cc2)cc1` [NSC 240898], the “Percent Inhibition” value came out at 72. For `Nc1ccc(/N=N/c2ccc3cc4ccc(/N=N/c5ccc(N)nc5N)cc4nc3c2)c(N)n1` [NSC 354962], the “Percent Inhibition” value was 40.

Turning to `C(=C\c1cc2ccc(C3=NCCN3)cc2o1)/c1cc2cc(C3=NCCN3)ccc2[nH]1` [NSC 294204], the “Percent Inhibition” value is 84. For the compound `C(=C\c1cc2ccc(C3=NCCN3)cc2o1)/c1cc2cc(C3=NCCN3)ccc2[nH]1` [NSC 294201], the “Percent Inhibition” value is 88. With `N=C(N)c1ccc2cc(/C=C/c3cc4ccc(C(=N)N)cc4o3)[nH]c2c1` [NSC 294200], the “Percent Inhibition” value amounted to 92. Take `N=C(N)c1ccc(-c2[nH]c3cc(C(=N)N)ccc3c2N)cc1` [NSC 300509]: the “Percent Inhibition” value was determined as 46. Same read-out and setting: the result for `CCOc1ccc2c(N)c3ccc(/N=N/c4ccc(N)nc4N)cc3nc2c1` [NSC 354961] reads 95; that for `N=C(N)c1ccc(/C=C/c2cc3ccc(C(=N)N)cc3[nH]2)cc1` [NSC 317886], 93. `c1cc(-c2nc3cc(-c4nc5cc(C6=NCCN6)ccc5[nH]4)ccc3[nH]2)ccc1C1=NCCN1` [NSC 369721]: the Inhibition type result is “competitive inhibition”, the Ki turned out to be 4.2 ± 0.21 µM, the “Km(app) with inhibitor concentration” value is given as “increased” and the “effect on the Vmax” value is on record as “no effect”. In addition, the inhibition – broadly, how much of the control response was suppressed – at 20 µM came to 90%. On to `O=C(Nc1ccc(C2=NCCN2)cc1)c1cc2ccc(C3=NCCN3)cc2[nH]1` [NSC 294206], for which the “Percent Inhibition” value was found to be 56.

For the compound `C/C(=C\c1ccc(/C=C/c2cc3ccc(C4=NCCN4)cc3[nH]2)[nH]1)C1=NCCN1` [NSC 317880], the “Percent Inhibition” value is recorded as 93. On the same count and under the same terms, the result for `C(=C\c1cc2ccc(C3=NCCN3)cc2o1)/c1cc2ccc(C3=NCCN3)cc2o1` [NSC 294494] reads 29. `N=C(N)c1ccc(N=Nc2cc(N=Nc3ccc(C(=N)N)cc3)c(O)cc2O)cc1` [NSC 359465] came in with an inhibition at 20 µM of 48%. Still for that read-out and setting: the result for `c1cc2cc(-c3ccc4cc(-c5ccc6oc(C7=NCCN7)cc6c5)[nH]c4c3)[nH]c2cc1C1=NCCN1` [NSC 369718] reads 90%. On to `N=C(N)N/N=C/c1ccc(-c2cc3ccc(/C=N/NC(=N)N)cc3s2)cc1` [NSC 341909], for which the “Percent Inhibition” value stood at 90. For the compound `Nc1c(/C=C/c2cc3cc(C4=NCCN4)ccc3o2)[nH]c2cc(C3=NCCN3)ccc12` [NSC 357756], the Inhibition type entry is given as “competitive inhibition”, the Ki came to 4.9 ± 1.7 µM, the “Km(app) with inhibitor concentration” value is given as “increased” and the “effect on the Vmax” value is recorded as “no effect”. In addition, the inhibition at 20 µM worked out at 90%. As for `N=C(N)c1ccc2[nH]c(/C=C/c3cc4cc(C(=N)N)ccc4o3)cc2c1` [NSC 290107], the “Percent Inhibition” value is on record as 85.

In the case of `N=C(N)c1ccc2[nH]c(/C=C/c3cc4ccc(C(=N)N)cc4o3)cc2c1` [NSC 294203], the “Percent Inhibition” value is given as 92. Consider `c1cc(C2=NCCN2)ccc1Nc1ccc(-c2cc3ccc(C4=NCCN4)cc3[nH]2)cc1` [NSC 377362], for which the inhibition at 20 µM came out at 33%.

The subject of another experiment is J774A.1 cells.
Assay: not given
The class given is cell-based.
With `Cc1cc(N)c2cc(NC(=O)Nc3ccc4nc(C)cc(N)c4c3)ccc2n1` [NSC 12155], the “protection (in words)” value is on record as “lower protection; also recorded: some protection”. Same read-out and setting: the result for `c1cc(-c2nc3cc(-c4nc5cc(C6=NCCN6)ccc5[nH]4)ccc3[nH]2)ccc1C1=NCCN1` [NSC 369721] reads “ineffective”; that for `c1cc2cc(-c3ccc4cc(-c5ccc6oc(C7=NCCN7)cc6c5)[nH]c4c3)[nH]c2cc1C1=NCCN1` [NSC 369718], “lower protection; also recorded: some protection”. Take `Nc1c(/C=C/c2cc3cc(C4=NCCN4)ccc3o2)[nH]c2cc(C3=NCCN3)ccc12` [NSC 357756]: the protection result is on record as “about 96%” and the “protection (in words)” value is “some protection”.

The record behind these values is patent US7781183B2 (priority 2003, dated 2010).
